Measurements taken from US10040781B2, “Tank-binding kinase inhibitor compounds” (Gilead Sciences, Inc., priority 2014, dated 2018).

Experiments:
[1] = molecular target: IKKε (Homo sapiens (Human), UniProt Q14164); experiment: IKKε TR-FRET enzymatic assay; assay type: biochemical; details: read-out: IKKe IC50
[2] = molecular target: hJAK2 (Homo sapiens (Human), UniProt O60674); experiment: hJAK2 LANCE TR-FRET enzymatic assay; assay type: biochemical; details: read-out: JAK2 IC50
[3] = molecular target: TBK1 (Homo sapiens (Human), UniProt Q9UHD2); experiment: TBK1 TR-FRET enzymatic assay;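 note: phosphorylation of a biotinylated Ser/Thr peptide by purified full-length recombinant TBK1, read by TR-FRET after 240 min at 25 °C, IC50 is the geometric mean of at least four runs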
Sequence of TBK1 (Q9UHD2 whole entry): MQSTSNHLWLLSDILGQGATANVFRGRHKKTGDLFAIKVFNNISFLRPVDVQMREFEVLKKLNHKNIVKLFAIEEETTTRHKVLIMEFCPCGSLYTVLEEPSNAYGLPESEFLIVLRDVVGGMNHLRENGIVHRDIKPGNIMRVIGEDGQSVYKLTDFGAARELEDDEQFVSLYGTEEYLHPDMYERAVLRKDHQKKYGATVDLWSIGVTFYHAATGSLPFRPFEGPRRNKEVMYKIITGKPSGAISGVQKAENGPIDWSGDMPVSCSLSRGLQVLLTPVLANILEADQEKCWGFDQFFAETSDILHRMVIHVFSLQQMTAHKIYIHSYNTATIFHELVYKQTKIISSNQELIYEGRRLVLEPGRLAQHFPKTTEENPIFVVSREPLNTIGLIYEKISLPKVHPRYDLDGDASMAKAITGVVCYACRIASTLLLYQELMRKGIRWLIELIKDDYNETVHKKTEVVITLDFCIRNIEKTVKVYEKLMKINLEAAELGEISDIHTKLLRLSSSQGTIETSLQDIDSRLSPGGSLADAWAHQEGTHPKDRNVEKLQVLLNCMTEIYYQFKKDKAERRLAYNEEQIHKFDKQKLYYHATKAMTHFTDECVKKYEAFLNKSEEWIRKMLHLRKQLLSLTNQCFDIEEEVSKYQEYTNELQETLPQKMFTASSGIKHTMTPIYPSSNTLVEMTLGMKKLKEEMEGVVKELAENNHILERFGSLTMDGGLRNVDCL

Sequence of hJAK2 (O60674 whole entry): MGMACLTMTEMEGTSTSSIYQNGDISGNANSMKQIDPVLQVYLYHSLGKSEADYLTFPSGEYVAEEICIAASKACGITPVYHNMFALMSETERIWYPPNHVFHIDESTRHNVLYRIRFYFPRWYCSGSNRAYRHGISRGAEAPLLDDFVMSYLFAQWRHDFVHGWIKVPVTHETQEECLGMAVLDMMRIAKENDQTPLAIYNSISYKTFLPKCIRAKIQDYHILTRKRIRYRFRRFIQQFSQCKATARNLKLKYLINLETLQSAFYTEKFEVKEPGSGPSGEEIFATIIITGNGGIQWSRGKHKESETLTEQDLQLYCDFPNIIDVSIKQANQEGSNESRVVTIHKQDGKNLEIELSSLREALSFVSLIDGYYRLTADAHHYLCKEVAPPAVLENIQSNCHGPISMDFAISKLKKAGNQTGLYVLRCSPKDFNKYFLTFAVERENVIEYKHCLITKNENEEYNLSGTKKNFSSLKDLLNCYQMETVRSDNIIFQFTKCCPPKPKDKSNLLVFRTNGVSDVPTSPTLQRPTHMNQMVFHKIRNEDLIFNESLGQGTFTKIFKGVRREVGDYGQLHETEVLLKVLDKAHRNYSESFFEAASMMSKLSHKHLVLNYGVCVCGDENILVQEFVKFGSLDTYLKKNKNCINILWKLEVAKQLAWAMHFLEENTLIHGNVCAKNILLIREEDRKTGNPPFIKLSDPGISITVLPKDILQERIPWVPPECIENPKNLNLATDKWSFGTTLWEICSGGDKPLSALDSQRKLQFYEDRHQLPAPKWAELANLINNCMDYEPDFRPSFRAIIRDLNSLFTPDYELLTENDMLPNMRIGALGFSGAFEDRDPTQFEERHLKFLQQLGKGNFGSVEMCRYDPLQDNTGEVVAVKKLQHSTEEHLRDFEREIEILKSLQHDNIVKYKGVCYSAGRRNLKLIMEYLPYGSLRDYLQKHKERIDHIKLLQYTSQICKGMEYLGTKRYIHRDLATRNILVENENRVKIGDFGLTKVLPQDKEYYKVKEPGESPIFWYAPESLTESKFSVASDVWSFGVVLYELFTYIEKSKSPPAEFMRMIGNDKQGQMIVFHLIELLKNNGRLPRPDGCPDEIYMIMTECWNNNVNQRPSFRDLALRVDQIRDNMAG
Sequence of IKKε (Q14164 whole entry): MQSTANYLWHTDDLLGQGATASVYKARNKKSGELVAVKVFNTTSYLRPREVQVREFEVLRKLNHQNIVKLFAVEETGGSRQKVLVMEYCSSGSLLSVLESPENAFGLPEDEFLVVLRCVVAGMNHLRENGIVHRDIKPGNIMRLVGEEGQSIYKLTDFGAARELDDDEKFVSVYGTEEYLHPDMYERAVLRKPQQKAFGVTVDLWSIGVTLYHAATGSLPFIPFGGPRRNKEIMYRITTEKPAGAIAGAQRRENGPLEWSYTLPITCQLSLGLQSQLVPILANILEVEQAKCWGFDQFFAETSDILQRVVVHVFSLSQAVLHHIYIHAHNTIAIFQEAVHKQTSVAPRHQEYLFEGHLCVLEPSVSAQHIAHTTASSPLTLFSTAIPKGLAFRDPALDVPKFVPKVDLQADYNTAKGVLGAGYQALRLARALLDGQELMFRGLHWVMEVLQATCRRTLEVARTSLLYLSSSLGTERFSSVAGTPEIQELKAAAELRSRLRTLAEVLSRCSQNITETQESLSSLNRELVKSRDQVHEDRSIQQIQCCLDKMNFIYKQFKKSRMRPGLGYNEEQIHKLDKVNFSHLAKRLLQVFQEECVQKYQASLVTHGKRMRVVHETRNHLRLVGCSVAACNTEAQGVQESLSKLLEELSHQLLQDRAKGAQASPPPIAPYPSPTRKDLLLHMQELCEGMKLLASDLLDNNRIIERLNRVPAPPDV

C[C@H](O)C(=O)N1CC[C@H](Oc2ccc(-c3ncnc(Nc4ccc(N5CCN(C6COC6)[C@H](C)C5)cc4)n3)cc2C#N)C(F)(F)C1 [Example 246, 2-(((S)-3,3-difluoro-1-((S)-2-hydroxypropanoyl)piperidin-4-yl)oxy)-5-(4-((4-((R)-3-methyl-4-(oxetan-3-yl)piperazin-1-yl)phenyl)amino)-1,3,5-triazin-2-yl)benzonitrile]
IC50 [1]: 1 nM
IC50 [2]: 181 nM
IC50 [3]: 2 nM

C[C@@H]1CN(c2ccc(Nc3ncnc(-c4ccc(O[C@@H]5CCN(C(=O)[C@@H](C)O)CC5(F)F)c(C#N)c4)n3)cc2)CCN1C1COC1 [Example 247, 2-(((R)-3,3-difluoro-1-((R)-2-hydroxypropanoyl)piperidin-4-yl)oxy)-5-(4-((4-((R)-3-methyl-4-(oxetan-3-yl)piperazin-1-yl)phenyl)amino)-1,3,5-triazin-2-yl)benzonitrile]
IC50 [1]: 397 nM
IC50 [2]: 333 nM
IC50 [3]: 233 nM

C[C@@H]1CN(c2ccc(Nc3ncnc(-c4ccc(O[C@H]5CCN(C(=O)[C@@H](C)O)CC5(F)F)c(C#N)c4)n3)cc2)CCN1C1COC1 [Example 248, 2-(((S)-3,3-difluoro-1-((R)-2-hydroxypropanoyl)piperidin-4-yl)oxy)-5-(4-((4-((R)-3-methyl-4-(oxetan-3-yl)piperazin-1-yl)phenyl)amino)-1,3,5-triazin-2-yl)benzonitrile]
IC50 [1]: 3 nM
IC50 [2]: 187 nM
IC50 [3]: 3 nM

C[C@H](O)C(=O)N1CC[C@H](Oc2ccc(-c3ncnc(Nc4ccc(N5CCN(C6COC6)C[C@@H]5C)cc4)n3)cc2C#N)[C@H](F)C1 [Example 249, 2-(((3R,4S)-3-fluoro-1-((S)-2-hydroxypropanoyl)piperidin-4-yl)oxy)-5-(4-((4-((S)-2-methyl-4-(oxetan-3-yl)piperazin-1-yl)phenyl)amino)-1,3,5-triazin-2-yl)benzonitrile]
IC50 [1]: 2 nM
IC50 [2]: 389 nM
IC50 [3]: 3 nM

C[C@H]1CN(C2COC2)CCN1c1ccc(Nc2ncnc(-c3ccc(O[C@H]4CCN(C(=O)CC#N)C[C@H]4F)c(C#N)c3)n2)cc1 [Example 250, 2-(((3R,4S)-1-(2-cyanoacetyl)-3-fluoropiperidin-4-yl)oxy)-5-(4-((4-((S)-2-methyl-4-(oxetan-3-yl)piperazin-1-yl)phenyl)amino)-1,3,5-triazin-2-yl)benzonitrile]
IC50 [1]: 5 nM
IC50 [2]: 127 nM
IC50 [3]: 3 nM

C[C@H]1CN(C2COC2)CCN1c1ccc(Nc2ncnc(-c3ccc(O[C@H]4CCN(C(=O)CCO)C[C@H]4F)c(C#N)c3)n2)cc1 [Example 251, 2-(((3R,4S)-3-fluoro-1-(3-hydroxypropanoyl)piperidin-4-yl)oxy)-5-(4-((4-((S)-2-methyl-4-(oxetan-3-yl)piperazin-1-yl)phenyl)amino)-1,3,5-triazin-2-yl)benzonitrile]
IC50 [1]: 14 nM
IC50 [2]: 369 nM
IC50 [3]: 5 nM

C[C@H](O)C(=O)N1CC[C@H](Oc2ccc(-c3ncnc(Nc4ccc(N5CCN(C6COC6)C[C@@H]5C)cc4)n3)cc2C#N)C(F)(F)C1 [Example 252, 2-(((S)-3,3-difluoro-1-((S)-2-hydroxypropanoyl)piperidin-4-yl)oxy)-5-(4-((4-((S)-2-methyl-4-(oxetan-3-yl)piperazin-1-yl)phenyl)amino)-1,3,5-triazin-2-yl)benzonitrile]
IC50 [1]: 1 nM
IC50 [2]: 213 nM
IC50 [3]: 3 nM

C[C@H]1CN(C2COC2)CCN1c1ccc(Nc2ncnc(-c3ccc(O[C@H]4CCN(C(=O)CC#N)CC4(F)F)c(C#N)c3)n2)cc1 [Example 253, 2-(((S)-1-(2-cyanoacetyl)-3,3-difluoropiperidin-4-yl)oxy)-5-(4-((4-((S)-2-methyl-4-(oxetan-3-yl)piperazin-1-yl)phenyl)amino)-1,3,5-triazin-2-yl)benzonitrile]
IC50 [1]: 2 nM
IC50 [2]: 61 nM
IC50 [3]: 3 nM

C[C@H]1CN(C2COC2)CCN1c1ccc(Nc2ncnc(-c3ccc(O[C@H]4CCN(C(=O)CCO)CC4(F)F)c(C#N)c3)n2)cc1 [Example 254, 2-(((S)-3,3-difluoro-1-(3-hydroxypropanoyl)piperidin-4-yl)oxy)-5-(4-((4-((S)-2-methyl-4-(oxetan-3-yl)piperazin-1-yl)phenyl)amino)-1,3,5-triazin-2-yl)benzonitrile]
IC50 [1]: 5 nM
IC50 [2]: 151 nM
IC50 [3]: 3 nM

C[C@H]1CN(C2COC2)CCN1c1ccc(Nc2ncnc(-c3ccc(O[C@H]4CCN(C(=O)c5cnn[nH]5)C[C@H]4F)c(C#N)c3)n2)cc1 [Example 255, 2-(((3R,4S)-3-fluoro-1-(1H-1,2,3-triazole-5-carbonyl)piperidin-4-yl)oxy)-5-(4-((4-((S)-2-methyl-4-(oxetan-3-yl)piperazin-1-yl)phenyl)amino)-1,3,5-triazin-2-yl)benzonitrile]
IC50 [1]: 2 nM
IC50 [2]: 227 nM
IC50 [3]: 4 nM

C[C@H]1CN(C2COC2)CCN1c1ccc(Nc2ncnc(-c3ccc(O[C@H]4CCN(C(=O)c5cnc[nH]5)C[C@H]4F)c(C#N)c3)n2)cc1 [Example 256, 2-(((3R,4S)-3-fluoro-1-(1H-imidazole-5-carbonyl)piperidin-4-yl)oxy)-5-(4-((4-((S)-2-methyl-4-(oxetan-3-yl)piperazin-1-yl)phenyl)amino)-1,3,5-triazin-2-yl)benzonitrile]
IC50 [1]: 1 nM
IC50 [2]: 144 nM
IC50 [3]: 3 nM

C[C@H]1CN(C2COC2)CCN1c1ccc(Nc2ncnc(-c3ccc(O[C@H]4CCN(C(=O)c5ccn[nH]5)C[C@H]4F)c(C#N)c3)n2)cc1 [Example 257, 2-(((3R,4S)-3-fluoro-1-(1H-pyrazole-5-carbonyl)piperidin-4-yl)oxy)-5-(4-((4-((S)-2-methyl-4-(oxetan-3-yl)piperazin-1-yl)phenyl)amino)-1,3,5-triazin-2-yl)benzonitrile]
IC50 [1]: 1 nM
IC50 [2]: 270 nM
IC50 [3]: 2 nM

C[C@H]1CN(C2COC2)CCN1c1ccc(Nc2ncnc(-c3ccc(O[C@H]4CCN(C(=O)c5cnc[nH]5)CC4(F)F)c(C#N)c3)n2)cc1 [Example 259, 2-(((S)-3,3-difluoro-1-(1H-imidazole-5-carbonyl)piperidin-4-yl)oxy)-5-(4-((4-((S)-2-methyl-4-(oxetan-3-yl)piperazin-1-yl)phenyl)amino)-1,3,5-triazin-2-yl)benzonitrile]
IC50 [1]: 1 nM
IC50 [2]: 66 nM
IC50 [3]: 3 nM

C[C@H](O)C(=O)N1CC[C@H](Oc2ccc(-c3ncnc(Nc4ccc(N5CCN(C6COC6)[C@@H](C)C5)cc4)n3)cc2C#N)C(F)(F)C1 [Example 262, 2-(((S)-3,3-difluoro-1-((S)-2-hydroxypropanoyl)piperidin-4-yl)oxy)-5-(4-((4-((S)-3-methyl-4-(oxetan-3-yl)piperazin-1-yl)phenyl)amino)-1,3,5-triazin-2-yl)benzonitrile]
IC50 [1]: 1 nM
IC50 [2]: 156 nM
IC50 [3]: 2 nM

C[C@H]1CN(c2ccc(Nc3ncnc(-c4ccc(O[C@H]5CCN(C(=O)c6cnn[nH]6)C[C@H]5F)c(C#N)c4)n3)cc2)CCN1C1COC1 [Example 263, 2-(((3R,4S)-3-fluoro-1-(1H-1,2,3-triazole-5-carbonyl)piperidin-4-yl)oxy)-5-(4-((4-((S)-3-methyl-4-(oxetan-3-yl)piperazin-1-yl)phenyl)amino)-1,3,5-triazin-2-yl)benzonitrile]
IC50 [1]: 3 nM
IC50 [2]: 158 nM
IC50 [3]: 3 nM

C[C@H](O)C(=O)N1CC[C@H](Oc2ccc(-c3ncnc(Nc4ccc(N5CCN(C6COC6)[C@@H](C)C5)cc4)n3)cc2C#N)[C@H](F)C1 [Example 264, 2-(((3R,4S)-3-fluoro-1-((S)-2-hydroxypropanoyl)piperidin-4-yl)oxy)-5-(4-((4-((S)-3-methyl-4-(oxetan-3-yl)piperazin-1-yl)phenyl)amino)-1,3,5-triazin-2-yl)benzonitrile]
IC50 [1]: 1 nM
IC50 [2]: 296 nM
IC50 [3]: 2 nM

C[C@H](O)C(=O)N1CC[C@H](Oc2ccc(-c3ncnc(Nc4ccc(N5C[C@@H](C)N(C6COC6)C[C@@H]5C)cc4)n3)cc2C#N)[C@H](F)C1 [Example 265, 5-(4-((4-((2S,5R)-2,5-dimethyl-4-(oxetan-3-yl)piperazin-1-yl)phenyl)amino)-1,3,5-triazin-2-yl)-2-(((3R,4S)-3-fluoro-1-((S)-2-hydroxypropanoyl)piperidin-4-yl)oxy)benzonitrile]
IC50 [1]: 4 nM
IC50 [2]: 426 nM
IC50 [3]: 5 nM

Cc1ncc(C(=O)N2CC[C@H](Oc3ccc(-c4ncnc(Nc5ccc(N6CCN(C7COC7)CC6)cc5)n4)cc3C#N)[C@H](F)C2)n1C [Example 266, 2-(((3R,4S)-1-(1,2-dimethyl-1H-imidazole-5-carbonyl)-3-fluoropiperidin-4-yl)oxy)-5-(4-((4-(4-(oxetan-3-yl)piperazin-1-yl)phenyl)amino)-1,3,5-triazin-2-yl)benzonitrile]
IC50 [1]: 83 nM
IC50 [2]: 387 nM
IC50 [3]: 82 nM

Cn1cncc1C(=O)N1CC[C@H](Oc2ccc(-c3ncnc(Nc4ccc(N5CCN(C6COC6)CC5)cc4)n3)cc2C#N)[C@H](F)C1 [Example 267, 2-(((3R,4S)-3-fluoro-1-(1-methyl-1H-imidazole-5-carbonyl)piperidin-4-yl)oxy)-5-(4-((4-(4-(oxetan-3-yl)piperazin-1-yl)phenyl)amino)-1,3,5-triazin-2-yl)benzonitrile]
IC50 [1]: 264 nM
IC50 [2]: 404 nM
IC50 [3]: 120 nM

N#Cc1cc(-c2ncnc(Nc3ccc(N4CCN(C5COC5)CC4)c(F)c3)n2)ccc1OC1CCS(=O)(=O)CC1 [Example 268, 2-((1,1-dioxidotetrahydro-2H-thiopyran-4-yl)oxy)-5-(4-((3-fluoro-4-(4-(oxetan-3-yl)piperazin-1-yl)phenyl)amino)-1,3,5-triazin-2-yl)benzonitrile]
IC50 [1]: 69 nM
IC50 [2]: 527 nM
IC50 [3]: 12 nM

COC1CN(c2ccc(-c3ncnc(Nc4ccc(N5CCN(C6COC6)CC5)cc4)n3)cc2C#N)C1 [Example 269, 2-(3-methoxyazetidin-1-yl)-5-(4-((4-(4-(oxetan-3-yl)piperazin-1-yl)phenyl)amino)-1,3,5-triazin-2-yl)benzonitrile]
IC50 [1]: 25 nM
IC50 [2]: 219 nM
IC50 [3]: 13 nM
